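Grown in 96-well plates, cells were treated for 48 hours with each compound at five concentrations. Insufficient inhibition: endpoint recorded as highest concentration tested. TGI: concentration producing complete growth inhibition.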
Key:
Experiment in all cases: inhibition of tumour cell growth, NCI panel, 48 h
[1] = system: NCI-H522 lung
[2] = system: CAKI-1 renal
[3] = system: 786-0 renal
[4] = system: SK-MEL-2 melanoma
[5] = system: CCRF-CEM leukemia
[6] = system: HOP-62 NSCLC
[7] = system: NCI-H23 lung
[8] = system: KM20L2 colon
[9] = system: OVCAR-4 ovarian
[10] = system: OVCAR-8 ovarian
[11] = system: U251 CNS
[12] = system: DMS 273 small cell lung
[13] = system: MOLT-4 leukemia
[14] = system: SN12C renal
[15] = system: HL-60(TB) leukemia
[16] = system: UACC-257 melanoma
[17] = system: MALME-3M melanoma
[18] = system: SF-295 CNS
[19] = system: RPMI-8226 leukemia
[20] = system: SK-OV-3 ovarian
[21] = system: EKVX NSCLC
[22] = system: SF-268 CNS
[23] = system: SK-MEL-5 melanoma
[24] = system: UACC-62 melanoma
[25] = system: NCI-H460 lung
[26] = system: HT29 colon
[27] = system: A498 renal
[28] = system: LXFL 529 NSCLC
[29] = system: RXF 393 renal
[30] = system: K-562 leukemia
[31] = system: COLO 205 colon
[32] = system: SNB-75 CNS
[33] = system: SK-MEL-28 melanoma
[34] = system: HCT-116 colon
[35] = system: UO-31 renal
[36] = system: XF 498 CNS
[37] = system: M14 melanoma
[38] = system: OVCAR-5 ovarian
[39] = system: DMS 114 small cell lung
[40] = system: A549 NSCLC
[41] = system: NCI-H226 lung
[42] = system: SR leukemia
[43] = system: ACHN renal
[44] = system: M19-MEL melanoma
[45] = system: HCT-15 colon
[46] = system: SNB-19 CNS
[47] = system: SW-620 colon
[48] = system: LOX IMVI melanoma
[49] = system: KM12 colon
[50] = system: SF-539 CNS
[51] = system: SNB-78 CNS
[52] = system: OVCAR-3 ovarian
[53] = system: DLD-1 colon
[54] = system: HCC-2998 colon
[55] = system: HOP-92 NSCLC
[56] = system: IGROV1 ovarian
[57] = system: TK-10 renal

Measured: TGI

CC(=O)OCC(OC(C)=O)C(OC(C)=O)C(OC(C)=O)C(=O)CNn1c(-c2ccccc2)nc2ccc(Br)cc2c1=O (centres undefined)
> 100 µM: [1] | [2] | [3] | [4] | [5] | [6] | [7] | [8] | [9] | [10] | [11] | [12] | [13] | [14] | [15] | [16] | [17] | [18] | [19] | [20] | [21] | [22] | [23] | [24] | [25] | [26] | [27] | [28] | [29] | [30] | [31] | [32] | [33] | [34] | [35] | [36] | [37] | [38] | [39] | [40] | [41] | [42] | [43] | [44] | [45] | [46] | [47] | [48] | [49] | [50] | [51] | [52]

O=C(O)c1ccc(N=Nc2cc(S(=O)(=O)O)c3cccnc3c2O)cc1
> 100 µM: [2] | [53] | [3] | [4] | [6] | [7] | [8] | [9] | [10] | [11] | [54] | [12] | [13] | [14] | [15] | [16] | [55] | [17] | [18] | [19] | [20] | [21] | [22] | [23] | [56] | [25] | [26] | [57] | [27] | [29] | [30] | [31] | [32] | [33] | [34] | [35] | [36] | [38] | [39] | [40] | [41] | [42] | [43] | [44] | [45] | [46] | [47] | [48] | [49] | [50] | [51] | [52]

Source: PubChem BioAssay (NCI)
